# Results reported in ChEMBL document CHEMBL1817646, “Chromomycin SA analogs from a marine-derived Streptomyces sp” (Bioorg Med Chem, 2011).
# Experiments:
# [1] = Cytotoxicity against human HCC44 cells after 96 hrs by Cell Titer Glo assay; assay type: functional, cell-based; conditions: HCC44, 96 h
# [2] = system: A549; assay: Cytotoxicity against human A549 cells after 96 hrs by Cell Titer Glo assay; assay type: functional, cell-based; conditions: A549, 96 h
# [3] = Ratio IC50 for compound to mithramycin IC50 for mouse 3T3 cells; assay type: cell-based; conditions: NIH3T3 cells, read-out: Ratio IC50
SMILES,IC50 [1],IC50 [2],selectivity ratio [3]
CO[C@H]1[C@H](O)C[C@@H](O[C@@H]2C[C@H](Oc3cc4cc5c(c(O)c4c(O)c3C)C(=O)[C@@H](O[C@H]3C[C@H](O[C@H]4C[C@H](O[C@H]6C[C@@](C)(O)[C@@H](O)[C@H](C)O6)[C@H](O)[C@@H](C)O4)[C@H](O)[C@@H](C)O3)[C@H]([C@H](OC)C(=O)[C@@H](O)[C@@H](C)O)C5)O[C@H](C)[C@H]2O)O[C@@H]1C,> 50000 nM,> 50000 nM,
COC(=O)[C@@H](OC)[C@@H]1Cc2cc3cc(O[C@H]4C[C@@H](O[C@@H]5C[C@@H](O)[C@H](OC)[C@@H](C)O5)[C@H](OC(C)=O)[C@@H](C)O4)c(C)c(O)c3c(O)c2C(=O)[C@H]1O[C@H]1C[C@H](O[C@H]2C[C@H](O[C@H]3C[C@@](C)(O)[C@@H](OC(=O)C(C)C)[C@H](C)O3)[C@H](O)[C@@H](C)O2)[C@H](O)[C@@H](C)O1,56 nM,,
CO[C@H]1[C@H](O)C[C@@H](O[C@@H]2C[C@H](Oc3cc4cc5c(c(O)c4c(O)c3C)C(=O)[C@@H](O[C@H]3C[C@H](O[C@H]4C[C@H](O[C@H]6C[C@@](C)(O)[C@@H](OC(=O)C(C)C)[C@H](C)O6)[C@H](O)[C@@H](C)O4)[C@H](O)[C@@H](C)O3)[C@H]([C@H](OC)C(=O)[C@@H](O)[C@@H](C)O)C5)O[C@H](C)[C@H]2OC(C)=O)O[C@@H]1C [CHROMOMYCIN A2],0.26 nM,0.44 nM,
CO[C@H]1[C@H](O)C[C@@H](O[C@@H]2C[C@H](Oc3cc4cc5c(c(O)c4c(O)c3C)C(=O)[C@@H](O[C@H]3C[C@H](O[C@H]4C[C@H](O[C@H]6C[C@@](C)(O)[C@@H](OC(C)=O)[C@H](C)O6)[C@H](O)[C@@H](C)O4)[C@H](O)[C@@H](C)O3)[C@H]([C@H](OC)C(=O)O)C5)O[C@H](C)[C@H]2OC(C)=O)O[C@@H]1C [CHROMOMYCIN SA],210 nM,560 nM,
CO[C@@H]1[C@H](O)C[C@@H](O[C@@H]2C[C@H](Oc3cc4cc5c(c(O)c4c(O)c3C)C(=O)[C@@H](O[C@H]3C[C@@H](O[C@H]4C[C@@H](O[C@H]6C[C@](C)(O)[C@@H](OC(C)=O)[C@H](C)O6)[C@H](O)[C@@H](C)O4)[C@H](O)[C@@H](C)O3)[C@H]([C@H](OC)C(=O)[C@@H](O)[C@@H](C)O)C5)O[C@H](C)[C@@H]2OC(C)=O)O[C@@H]1C [CHROMOMYCIN A3],1 nM,42 nM,
CO[C@H](C(=O)[C@@H](O)[C@@H](C)O)[C@@H]1Cc2cc3cc(O[C@H]4C[C@@H](O[C@H]5C[C@@H](O)[C@H](O)[C@@H](C)O5)[C@H](O)[C@@H](C)O4)c(C)c(O)c3c(O)c2C(=O)[C@H]1O[C@H]1C[C@@H](O[C@H]2C[C@@H](O[C@H]3C[C@](C)(O)[C@H](O)[C@@H](C)O3)[C@@H](O)[C@@H](C)O2)[C@H](O)[C@@H](C)O1 [PLICAMYCIN],,,1500
CO[C@H]1[C@H](O)C[C@@H](O[C@@H]2C[C@H](Oc3cc4cc5c(c(O)c4c(O)c3C)C(=O)[C@@H](O[C@H]3C[C@H](O[C@H]4C[C@H](O[C@H]6C[C@@](C)(O)[C@@H](O)[C@H](C)O6)[C@H](O)[C@@H](C)O4)[C@H](O)[C@@H](C)O3)[C@H]([C@H](OC)C(=O)[C@@H](O)[C@@H](C)O)C5)O[C@H](C)[C@H]2OC(C)=O)O[C@@H]1C [DEACETYL CHROMOMYCIN A3],670 nM,1200 nM,
COC(=O)[C@@H](OC)[C@@H]1Cc2cc3cc(O[C@H]4C[C@@H](O[C@@H]5C[C@@H](O)[C@H](OC)[C@@H](C)O5)[C@H](OC(C)=O)[C@@H](C)O4)c(C)c(O)c3c(O)c2C(=O)[C@H]1O[C@H]1C[C@H](O[C@H]2C[C@H](O[C@H]3C[C@@](C)(O)[C@@H](O)[C@H](C)O3)[C@H](O)[C@@H](C)O2)[C@H](O)[C@@H](C)O1,3400 nM,,
CO[C@H]1[C@H](O)C[C@@H](O[C@@H]2C[C@H](Oc3cc4cc5c(c(O)c4c(O)c3C)C(=O)[C@@H](O[C@H]3C[C@H](O[C@H]4C[C@H](O[C@H]6C[C@@](C)(O)[C@@H](O)[C@H](C)O6)[C@H](O)[C@@H](C)O4)[C@H](O)[C@@H](C)O3)[C@H]([C@H](OC)C(=O)O)C5)O[C@H](C)[C@H]2OC(C)=O)O[C@@H]1C [CHROMOMYCIN SA3],> 33300 nM,> 50000 nM,
CO[C@H]1[C@H](O)C[C@@H](O[C@@H]2C[C@H](Oc3cc4cc5c(c(O)c4c(O)c3C)C(=O)[C@@H](O[C@H]3C[C@H](O[C@H]4C[C@H](O[C@H]6C[C@@](C)(O)[C@@H](OC(=O)C(C)C)[C@H](C)O6)[C@H](O)[C@@H](C)O4)[C@H](O)[C@@H](C)O3)[C@H]([C@H](OC)C(=O)O)C5)O[C@H](C)[C@H]2OC(C)=O)O[C@@H]1C [CHROMOMYCIN SA2],780 nM,1500 nM,
